The COVID Moonshot data (paper PMC7615835)
Values joined by “and” are separate entries in the source; they are usually repeats but may differ in a detail not shown here. Equal entries are not always repeated.

target: SARS-CoV-2 Main Protease (SARS-CoV-2) (UniProt P0DTD1)

| SMILES | IC50 |
| --- | --- |
| CC(C)(C)OC(=O)N1CC(NC(=O)C(c2cccnc2)N(C(=O)c2cocn2)c2ccc(C(C)(C)C)cc2)C1 (stereo unspecified) | 6.91 µM |
| CC(C)(C)c1ccc(N(C(=O)c2nc3c(s2)CCC3)C(C(=O)NCCc2cccc(F)c2)c2cccnc2)cc1 (stereo unspecified) | > 99.5 µM |
| Cn1cnc2cc(N(C(=O)c3cocn3)C(C(=O)NCCc3cccc(F)c3)c3cccnc3)ccc21 (stereo unspecified) | > 99.5 µM |
| CS(=O)(=O)c1ccc(O)c(Nc2cc(Cl)cc(CC(=O)Nc3cncc4ccccc34)c2)c1 | 7.61 µM |
| CC1(CS(=O)(=O)N2Cc3ccc(Cl)cc3C(C(=O)Nc3cncc4cccc(Cl)c34)C2)CS(=O)(=O)C1 (stereo unspecified) | 0.957 µM |
| O=C(NCC(=O)N1CCCC1c1nc2ccccc2[nH]1)C1CCCC1 (stereo unspecified) | > 99.5 µM |
| O=C(Cc1cc(Cl)cc(Nc2ccc(OCc3ccccc3)cc2)c1)Nc1cncc2ccccc12 | 8.23 µM |
| Cc1cnn(C)c1C(=O)N1Cc2ccc(Cl)cc2C2(CCN(c3cncc4ccccc34)C2=O)C1 (stereo unspecified) | 0.683 µM |
| COc1cccc(CCNc2cc(Cl)cc(CC(=O)Nc3cncc4ccccc34)c2)c1 | 3.16 µM |
| Nc1cncc2c1CCCN2C(=O)Cc1cccc(Cl)c1 | 25.5 µM and 41.4 µM |
| O=C(Cn1cnc2ccccc21)Nc1cccc(Cl)c1 | 87.2 µM |
| C=CC(=O)N(c1ccc(C(C)(C)C)cc1)C(C(=O)NCC)c1cccnc1 (stereo unspecified) | 45.5 µM |
| COc1cc2c(cc1Nc1cc(Cl)cc(CC(=O)Nc3cncc4ccccc34)c1)oc1ccccc12 | 1.87 µM |
| Nc1cccc(C2CN(C(=O)CCl)Cc3ccccc32)c1 (stereo unspecified) | 9.23 µM |
| CC(NC(=O)C1CCC(=O)NC1)(C(=O)Nc1cncc2ccccc12)c1ccc(Cl)c(Cl)c1 (stereo unspecified) | 4.1 µM |
| O=C(NCCc1cccc(F)c1)C(c1cccnc1)N(C(=O)c1ccco1)C1CCN(c2ccccc2)CC1 (stereo unspecified) | 79.6 µM |
| COc1ccccc1C(=O)N(c1ccc(C(C)(C)C)cc1)C(C(=O)NCCc1cccc(F)c1)c1cccnc1 (stereo unspecified) | > 99.5 µM |
| CNS(=O)(=O)N1CCc2ccc(Cl)cc2C1C(=O)Nc1cncc2ccccc12 (stereo unspecified) | 1.55 µM |
| COc1ccc2ncc(NC(=O)Cc3cccc(Cl)c3)n2c1 | 15.9 µM |
| COc1cncc(C(C(=O)NCCc2cccc(F)c2)N(C(=O)c2ccco2)c2ccc(C(C)(C)C)cc2)c1C (stereo unspecified) | > 99.5 µM |
| O=C(Cc1cc(Cl)cc(Nc2c(Cl)cc(Cl)cc2Br)c1)Nc1cncc2ccccc12 | 1.63 µM |
| O=C(NCCc1cccc(F)c1)C(c1cccnc1)N(C(=O)c1cnc[nH]1)c1ccc2c(c1)CCCS2(=O)=O (stereo unspecified) | > 99 µM |
| CN1CCN(c2ccc(F)cc2C(=O)N2CCC(C3CCNC3)CC2)CC1 (stereo unspecified) | > 99.5 µM |
| O=C(Cc1cc(Cl)cc(Nc2ccc(Br)c3ccccc23)c1)Nc1cncc2ccccc12 | 1.98 µM |

| SMILES | IC50 |
| --- | --- |
| COc1ccc2nnn(CC(=O)N(Cc3ccccn3)c3ccc(C4CCNCC4)cc3)c2c1 | 38.8 µM |
| COC(C)(C)/C=C/C[C@@H](C)[C@H]1CC[C@@]2(C)[C@@H]3[C@@H](O[C@@H]4O[C@H](CO)[C@@H](O)[C@H](O)[C@H]4O)C=C4[C@@H](CC[C@H](O)C4(C)C)[C@]3(C=O)CC[C@]12C (stereo in doubt) | > 99.5 µM |
| O=C(Cc1cc(Cl)cc2c1OCC2)Nc1cncc2ccccc12 | 1.13 µM and 1.87 µM |
| Cc1ccncc1NC(=O)Nc1cccc(C#N)c1 | > 99 µM |
| O=C(Cc1cc(Cl)cc(NCc2ccccc2Br)c1)Nc1cncc2ccccc12 | 3.5 µM |
| Nc1nn(C(=O)Cc2cccc(Cl)c2)c2cc(F)ccc12 | > 99.5 µM |
| O=C(Cc1cc(Cl)cc(Nc2ccc(-n3ccnc3)cc2)c1)Nc1cncc2ccccc12 | 2.46 µM |
| Cn1cc(C(C(=O)NCCc2cccc(F)c2)N(C(=O)c2cocn2)c2ccc(C(C)(C)C)cc2)ccc1=O (stereo unspecified) | > 99.5 µM |
| Cc1cc(Cl)cc(CC2CCN(C(=O)CCl)CC2)c1 | 3.57 µM |
| COc1ccccc1NCCNC(=O)c1cc(=O)[nH]c2ccccc12 | > 99.5 µM |
| O=C(Cc1cccc(Cl)c1)Nc1cncc2cc(F)cc(Cl)c12 | 0.718 µM |
| O=C(Nc1cncc2c1CNCC2)C1CCOc2ccc(Cl)cc21 (stereo unspecified) | 6.16 µM |
| Cc1cc(C)c(S(=O)(=O)N2CCCC2C(=O)Nc2ccc3[nH]c(=O)sc3c2)c(C)c1 (stereo unspecified) | > 99.5 µM |
| O=C(Cc1cc(Cl)cc(Nc2ncccc2OCc2ccccc2)c1)Nc1cncc2ccccc12 | 2 µM |
| CNC(=O)c1cc(Cl)cc(CC(=O)Nc2cnccc2C)c1 | 46.3 µM and 57.3 µM |
| O=S(=O)(Nc1ccccc1)c1cc2c(cc1OCc1ccccc1)OCO2 | 72.8 µM |
| O=C(Cc1cccc(Cl)c1)Nc1cnccc1C(=O)O | > 99.5 µM |
| O=C(NCCc1nnc2n1CCC2)c1cc(O)nc2ccccc12 | > 99.5 µM |
| O=C(Nc1cncc2ccccc12)C1(CCC2CC2)CCOc2ccc(Cl)cc21 (stereo unspecified) | 40.7 µM |
| COCOc1ccc(N(C(=O)c2cocn2)C(C(=O)NCCc2cccc(F)c2)c2cccnc2)cc1 (stereo unspecified) | 13.2 µM |
| O=C(CCl)N1CCN(Cc2cc(Cl)ccc2CNC(=O)N2CCOCC2)CC1 | 3.8 µM |
| CC(C)(C)NC(=O)CN1CC(C(=O)Nc2cncc3ccccc23)c2cc(Cl)ccc2C1=O (stereo unspecified) | 0.523 µM |
| O=C(Nc1cncc2ccccc12)C1COc2ccc(Cl)cc21 (stereo unspecified) | 0.764 µM |
| O=C(Nc1ccccn1)[C@H]1CN(C(=O)CCl)CCN1S(=O)(=O)c1ccsc1 (stereo in doubt) | 4.77 µM |

| SMILES | IC50 |
| --- | --- |
| Cc1nc(-c2cccc(NCc3ccccc3C)c2)n[nH]1 | > 99.5 µM |
| CCS(=O)(=O)Nc1ccc2cncc(NC(=O)Cc3cccc(Cl)c3)c2c1 | 1.02 µM |
| CC(C)(C)c1ccc(N(C(=O)c2nnn[nH]2)C(C(=O)NCCc2cccc(F)c2)c2cccnc2)cc1 (stereo unspecified) | > 99.5 µM |
| Cc1cc(C(=O)CCl)c(C)n1CC1COc2ccccc2O1 (stereo unspecified) | 2.82 µM |
| N#CC1(CS(=O)(=O)N2Cc3ccc(Cl)cc3C3(CCN(c4cncc5cccc(Cl)c45)C3=O)C2)CC1 (stereo unspecified) | 7.79 µM |
| CC(C)Oc1ccc(N(C(=O)c2cnc[nH]2)C(C(=O)NCCc2cccc(F)c2)c2cccnc2)cc1 (stereo unspecified) | 0.857 µM and 0.592 µM |
| O=C(Cc1cc(Cl)cc(Nc2cccc(-c3ccccc3)c2)c1)Nc1cncc2ccccc12 | 5.85 µM |
| C#CCCCC(=O)N[C@H](C(=O)N[C@H](CC(C)C)C(=O)NN(CCC(N)=O)C(=O)C1OC1C(=O)OCC)C(C)(C)C (stereo in doubt) | 0.292 µM and 0.206 µM |
| O=C1NCC(C(=O)Nc2cncc3ccccc23)c2cc(F)cc(F)c21 (stereo unspecified) | 1.73 µM |
| Cc1ncc(CN2CC(C(=O)Nc3cncc4cc(S(C)(=O)=O)ccc34)c3cc(Cl)ccc3C2=O)[nH]1 (stereo unspecified) | 0.226 µM |
| O=C(Nc1cncc2c1CCCC2)[C@H]1CNS(=O)(=O)c2ccc(Cl)cc21 (stereo in doubt) | 0.723 µM |
| CC(C)(C)OC(=O)NCCCNC(=O)C(c1cccnc1)N(C(=O)c1cocn1)c1ccc(C(C)(C)C)cc1 (stereo unspecified) | 3.39 µM |
| O=C(Cc1ccccc1Cl)Nc1cncc2ccccc12 | > 99.5 µM |
| N#Cc1cc(N(C(=O)c2ccco2)C(C(=O)NCCc2cccc(F)c2)c2cccnc2)ccc1Oc1ccc(C(F)(F)F)cc1 (stereo unspecified) | > 99.5 µM |
| COc1ccncc1NC(=O)Cc1cccc(Cl)c1 | 21.6 µM |
| COc1ccc(N(C(=O)c2ccco2)C(C(=O)NCCc2cccc(F)c2)c2cccnc2)cc1 (stereo unspecified) | 30.5 µM |
| CN(CCC#N)S(=O)(=O)N1Cc2ccc(Cl)cc2C2(CCN(c3cncc4ccccc34)C2=O)C1 (stereo unspecified) | 0.613 µM |
| Cc1ccncc1NC(=O)C1(c2cccc(Cl)c2)CC1 | > 99.5 µM |
| Cc1ccn2cnnc2c1NC(=O)C1CCOc2ccc(Cl)cc21 (stereo unspecified) | > 99.5 µM |
| CC1(CS(=O)(=O)N2Cc3ccc(Cl)cc3C3(CCN(c4cncc5ccccc45)C3=O)C2)CC1 (stereo unspecified) | 0.265 µM |
| C[C@H](C(=O)Nc1cncnc1)c1ccccc1 (stereo in doubt) | > 99.5 µM |
| COc1ccn2c(NC(=O)Cc3cccc(Cl)c3)cnc2c1 | > 99.5 µM |
| CC(C)OCc1cc(C(=O)N2CCC(C3CCNC3)CC2)ccc1F (stereo unspecified) | > 99.5 µM |
